# Assay results from patent US6432922B1 (Corvas International, Inc., priority 1998, dated 2002).
# Read-outs that look alike come from different tables or passages of the source. Non-standard residues stand in square brackets, D forms with d. Residues, ends and D or L forms follow the SMILES beside them. *: point of attachment. Fmoc = O=C(OCC1c2ccccc2-c2ccccc21)*; d(aThr) = C[C@@H](O)[C@@H](N)C(=O)O; d(hSer) = N[C@H](CCO)C(=O)O; NMeA = CN[C@@H](C)C(=O)O; Aze = O=C(O)[C@@H]1CCN1; Cbz = O=C(OCc1ccccc1)*; Sar = CNCC(=O)O; Moc = COC(=O)*
# How the values were obtained:
# Human rt-PA (Activase) = target: T1, Human rt-PA (Activase) (Homo sapiens, UniProt P00750); assay: Recombinant tissue plasminogen activator (rt-PA) chromogenic assay; assay type: biochemical; settings: 30 minute preincubation, HBSA buffer; read-out: tPA IC50
# T1 construct: purchased Genentech Inc
# Description: rt-PA catalytic activity was determined using the substrate, Pefachrome t-PA (CH3SO2-D-hexahydrotyrosine-glycyl-L-arginine-p-nitroaniline, obtained from Pentap harm Ltd.). The substrate was made up in deionized water followed by dilution in HBSA prior to the assay in which the final concentration was 500 micromolar (about 3-times Km). Human rt-PA (Activase®) was obtained from Genentech Inc. The enzyme was reconstituted in deionized water and diluted into HBSA prior to the assay in which the final concentration was 1.0 nM.
# Urokinase (Abbokinase) = Urokinase (Abbokinase) (Homo sapiens, UniProt P00749); assay: Urokinase chromogenic substrate (S-2444) IC50 assay
# Description: The buffer used for all assays was HBSA (10 mM HEPES, pH 7.5, 150 mM sodium chloride, 0.1% bovine serum albumin).
# The initial velocity of chromogenic substrate hydrolysis was measured by the change in absorbance at 405 nm using a Thermo Max® Kinetic Microplate Reader over a 5 minute period in which less than 5% of the added substrate was utilized.
# The assay buffer was HBS (10mM HEPES, 150mM sodium chloride pH 7.4) with 0.1% BSA.
# human plasmin = target: T2, human plasmin (Homo sapiens, UniProt P00747); assay: Plasmin chromogenic substrate (S-2366) assay; assay type: biochemical; settings: 30 minute preincubation, HBSA buffer
# T2 construct: purchased Enzyme Research Laboratories, Inc
# Description: The substrate was made up in deionized water followed by dilution in HBSA prior to the assay in which the final concentration was 300 micromolar (about 2.5-times Km). Purified human plasmin was obtained from Enzyme Research Laboratories, Inc. The enzyme was diluted into HBSA prior to assay in which the final concentration was 1.0 nM.
# [1] = read-out: uPA IC50, 30 minute preincubation, HBSA buffer
# T1 sequence (P00750 36-562): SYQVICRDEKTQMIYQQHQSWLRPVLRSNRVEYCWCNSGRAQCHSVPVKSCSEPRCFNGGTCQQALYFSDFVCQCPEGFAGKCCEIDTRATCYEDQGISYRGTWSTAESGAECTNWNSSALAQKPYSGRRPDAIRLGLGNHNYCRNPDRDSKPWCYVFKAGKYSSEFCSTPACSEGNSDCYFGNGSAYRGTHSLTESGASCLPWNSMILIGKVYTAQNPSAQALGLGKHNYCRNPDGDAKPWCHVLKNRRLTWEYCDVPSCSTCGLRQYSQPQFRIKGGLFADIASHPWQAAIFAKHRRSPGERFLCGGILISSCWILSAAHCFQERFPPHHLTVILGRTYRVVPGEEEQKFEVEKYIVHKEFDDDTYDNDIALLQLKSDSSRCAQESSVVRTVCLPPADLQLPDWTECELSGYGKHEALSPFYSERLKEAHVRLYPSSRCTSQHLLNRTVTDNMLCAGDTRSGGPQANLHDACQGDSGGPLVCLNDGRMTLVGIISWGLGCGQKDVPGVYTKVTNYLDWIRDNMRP
# T2 sequence (P00747 581-810 limits assumed): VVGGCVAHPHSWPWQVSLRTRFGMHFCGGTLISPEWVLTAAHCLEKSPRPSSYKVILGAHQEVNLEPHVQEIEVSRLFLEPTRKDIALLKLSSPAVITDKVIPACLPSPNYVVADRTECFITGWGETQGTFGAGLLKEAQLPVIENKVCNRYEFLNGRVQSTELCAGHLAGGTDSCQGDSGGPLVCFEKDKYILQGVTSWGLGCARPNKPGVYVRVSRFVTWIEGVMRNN
# T2 sequence (P00747 97-580 partner limits assumed): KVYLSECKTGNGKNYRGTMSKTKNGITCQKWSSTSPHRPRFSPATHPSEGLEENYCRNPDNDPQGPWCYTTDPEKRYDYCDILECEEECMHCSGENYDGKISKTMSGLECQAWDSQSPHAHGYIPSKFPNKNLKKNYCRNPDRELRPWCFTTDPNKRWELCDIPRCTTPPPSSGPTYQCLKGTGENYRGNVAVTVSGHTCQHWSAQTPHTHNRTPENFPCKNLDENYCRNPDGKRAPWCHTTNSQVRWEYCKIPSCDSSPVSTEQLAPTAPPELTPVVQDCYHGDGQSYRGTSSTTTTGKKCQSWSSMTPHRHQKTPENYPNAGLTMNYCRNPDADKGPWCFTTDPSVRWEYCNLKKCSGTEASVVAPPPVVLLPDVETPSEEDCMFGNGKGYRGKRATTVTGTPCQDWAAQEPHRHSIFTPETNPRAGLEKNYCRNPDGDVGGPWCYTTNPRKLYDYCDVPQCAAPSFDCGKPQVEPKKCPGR
SMILES,IC50 (Human rt-PA (Activase)),IC50 (Urokinase (Abbokinase)),IC50 (Urokinase (Abbokinase); [1]),IC50 (human plasmin)
"CC1CCC(C(C)C)C(OC(=O)N[C@H](CO)C(=O)N[C@@H](C)C(=O)N[C@H](C=O)CCCNC(=N)N)C1 (single isomer, unassigned; (+)) [Compound 7, (+)menthyloxy-carbonyl-D-seryl-alanyl-argininal]",> 2500 nM,< 100 nM,,
"CC1CCC(C(C)C)C(OC(=O)N[C@H](CO)C(=O)N[C@@H](C)C(=O)N[C@H](C=O)CCCNC(=N)N)C1 (single isomer, unassigned; (-)) [Compound 3, (−)menthyloxy-carbonyl-D-seryl-alanyl-argininal]",> 2500 nM,,< 100 nM,
"C[C@H](NC(=O)[C@@H](CO)NC(=O)OCc1ccccc1)C(=O)N[C@H](C=O)CCCNC(=N)N [Compound 2, Benzyloxycarbonyl-D-seryl-alanyl-argininal] (Cbz-[dS]-Ala-Arg-aldehyde)",250 to 2500 nM,< 100 nM,,250 to 2500 nM
"C[C@H](NC(=O)[C@@H](CO)NC(=O)Oc1ccc2ccccc2c1)C(=O)N[C@H](C=O)CCCNC(=N)N [Compound 4, 2-naphthyloxy-carbonyl-D-seryl-alanyl-argininal]",> 2500 nM,< 100 nM,,
"C[C@H](NC(=O)[C@@H](CO)NC(=O)Oc1ccccc1)C(=O)N[C@H](C=O)CCCNC(=N)N [Compound 5, phenoxycarbonyl-D-seryl-alanyl-argininal]",> 2500 nM,< 100 nM,,
"CCCCC(CC)COC(=O)N[C@H](CO)C(=O)N[C@@H](C)C(=O)N[C@H](C=O)CCCNC(=N)N (stereo partly drawn) [Compound 6, 2-ethylhexyloxy-carbonyl-D-seryl-alanyl-argininal]",> 2500 nM,< 100 nM,,
"COC(=O)N[C@H](CO)C(=O)N[C@@H](C)C(=O)N[C@H](C=O)CCCNC(=N)N [Compound 8, methyloxycarbonyl-D-seryl-alanyl-argininal] (Moc-[dS]-Ala-Arg-aldehyde)",> 2500 nM,< 100 nM,,
"CCCCOC(=O)N[C@H](CO)C(=O)N[C@@H](C)C(=O)N[C@H](C=O)CCCNC(=N)N [Compound 9, n-butyloxycarbonyl-D-seryl-alanyl-argininal]",> 2500 nM,< 100 nM,,
"C[C@H](NC(=O)[C@@H](CO)NC(=O)OCC1c2ccccc2-c2ccccc21)C(=O)N[C@H](C=O)CCCNC(=N)N [Compound 10, Fluorenylmethyloxycarbonyl-D-seryl-alanyl-argininal] (Fmoc-[dS]-Ala-Arg-aldehyde)",> 2500 nM,< 100 nM,,
"N=C(N)NCCC[C@@H](C=O)NC(=O)[C@@H]1CCCN1C(=O)[C@@H](CO)NC(=O)OCc1ccccc1 [Compound 11, benzyloxycarbonyl-D-seryl-prolyl-argininal] (Cbz-[dS]-Pro-Arg-aldehyde)",> 2500 nM,< 100 nM,,250 to 2500 nM
"N=C(N)NCCC[C@@H](C=O)NC(=O)[C@@H]1CCN1C(=O)[C@@H](CO)NC(=O)OCc1ccccc1 [Compound 12, benzyloxycarbonyl-D-seryl-L-azetidine-2-carbonyl-argininal] (Cbz-[dS]-[Aze]-Arg-aldehyde)",> 2500 nM,< 100 nM,,250 to 2500 nM
N=C(N)NCCC[C@@H](C=O)NC(=O)[C@@H]1CCCCN1C(=O)[C@@H](CO)NC(=O)OCc1ccccc1 [Compound 13],> 2500 nM,100 to 250 nM,,
CC[C@H](NC(=O)[C@@H](CO)NC(=O)OCc1ccccc1)C(=O)N[C@H](C=O)CCCNC(=N)N [Compound 14],> 2500 nM,< 100 nM,,
"CSC[C@H](NC(=O)[C@@H](CO)NC(=O)OCc1ccccc1)C(=O)N[C@H](C=O)CCCNC(=N)N [Compound 15, benzyloxycarbonyl-D-seryl-S-methylcysteinyl-argininal] (Cbz-[dS]-Cys(Me)-Arg-aldehyde)",> 2500 nM,100 to 250 nM,,
CCCC(NC(=O)[C@@H](CO)NC(=O)OCc1ccccc1)C(=O)NC(C=O)CCCNC(=N)N (some centres unmarked) [Compound 16],> 2500 nM,100 to 250 nM,,
N=C(N)NCCCC(C=O)NC(=O)CNC(=O)[C@@H](CO)NC(=O)OCc1ccccc1 (some centres unmarked) [Compound 17],> 2500 nM,100 to 250 nM,,
"CN(CC(=O)N[C@H](C=O)CCCNC(=N)N)C(=O)[C@@H](CO)NC(=O)OCc1ccccc1 [Compound 18, benzyloxycarbonyl-D-seryl-sarcosyl-argininal] (Cbz-[dS]-[Sar]-Arg-aldehyde)",> 2500 nM,250 to 2500 nM,,
"C[C@H](NC(=O)[C@H](NC(=O)OCc1ccccc1)[C@@H](C)O)C(=O)N[C@H](C=O)CCCNC(=N)N [Compound 19, benzyloxycarbonyl-D-allothreonyl-alanyl-argininal] (Cbz-[d(aThr)]-Ala-Arg-aldehyde)",> 2500 nM,< 100 nM,,250 to 2500 nM
"C[C@H](NC(=O)[C@@H](NC(=O)OCc1ccccc1)[C@@H](C)O)C(=O)N[C@H](C=O)CCCNC(=N)N [Compound 20, benzyloxycarbonyl-threonyl-alanyl-argininal] (Cbz-Thr-Ala-Arg-aldehyde)",> 2500 nM,100 to 250 nM,,
"C[C@H](NC(=O)[C@@H](C)NC(=O)OCc1ccccc1)C(=O)N[C@H](C=O)CCCNC(=N)N [Compound 21, benzyloxycarbonyl-D-alanyl-alanyl-argininal] (Cbz-[dA]-Ala-Arg-aldehyde)",,100 to 250 nM,,
"C[C@H](NC(=O)[C@H](NC(=O)OCc1ccccc1)[C@H](C)O)C(=O)N[C@H](C=O)CCCNC(=N)N [Compound 22, benzyloxycarbonyl-D-threonyl-alanyl-argininal] (Cbz-[dT]-Ala-Arg-aldehyde)",> 2500 nM,250 to 2500 nM,,
"C[C@H](NC(=O)[C@H](CO)NC(=O)OCc1ccccc1)C(=O)N[C@H](C=O)CCCNC(=N)N [Compound 23, benzyloxycarbonyl-seryl-alanyl-argininal] (Cbz-Ser-Ala-Arg-aldehyde)",> 2500 nM,250 to 2500 nM,,
"C[C@@H](O)[C@@H](NC(=O)OCc1ccccc1)C(=O)N(C)CC(=O)N[C@H](C=O)CCCNC(=N)N [Compound 24, benzyloxycarbonyl-D-allothreonyl-sarcosyl-argininal] (Cbz-[d(aThr)]-[Sar]-Arg-aldehyde)",,100 to 250 nM,,
"C[C@@H](O)[C@@H](NC(=O)OCc1ccccc1)C(=O)N(C)[C@@H](C)C(=O)N[C@H](C=O)CCCNC(=N)N [Compound 25, benzyloxycarbonyl-D-allothreonyl-N-methylalanyl-argininal] (Cbz-[d(aThr)]-[NMeA]-Arg-aldehyde)",,100 to 250 nM,,
"C[C@H](O)[C@@H](NC(=O)OCc1ccccc1)C(=O)N1CCC[C@H]1C(=O)N[C@H](C=O)CCCNC(=N)N [Compound 26, benzyloxycarbonyl-D-threonyl-prolyl-argininal] (Cbz-[dT]-Pro-Arg-aldehyde)",> 2500 nM,100 to 250 nM,,
"N=C(N)NCCC[C@@H](C=O)NC(=O)[C@@H]1CCCN1C(=O)[C@@H](CCO)NC(=O)OCc1ccccc1 [Compound 27, benzyloxycarbonyl-D-homoseryl-prolyl-argininal] (Cbz-[d(hSer)]-Pro-Arg-aldehyde)",> 2500 nM,100 to 250 nM,,< 100 nM
"N=C(N)NCCCC(C=O)NC(=O)C1CCN1C(=O)C(CO)NS(=O)(=O)c1ccccc1 [Compound 31, benzenesulfonyl-D-seryl-azetidyl-argininal]",,,< 100 nM,250 to 2500 nM
